Molecular target: T1, Human recombinant SIRT6 (Homo sapiens, UniProt Q8N6T7)
T1 construct: six-histidine (His6); made in house; host or cells: Escherichia coli BL21
Experiment: SIRT6 enzymatic activity assay (fluorogenic de-myristoylation of histone H3 peptide-AMC, trypsin-coupled)
Assay type: biochemical
Details: percentage of signal increase relative to control wells; for % activity 20 uM: compound 20 uM; for % activity Max. conc. 100 uM / % activity 100 uM: compound 100 uM
Experimental: Human recombinant SIRT6 (sequence identifier: CAG33481.1; GI:4814651) was expressed in large scale in Escherichia coli strain BL21 as a six-histidine-tagged protein, after transformation of the expression plasmid pET28-SIRT6. The SIRT6 enzyme was purified from the bacteria culture broth in a two-step strategy. The first purification step was carried out by cation exchange chromatography on a HiTrap CM-Sepharose column (GE Healthcare) using an FPLC system. The second purification step was performed by immobilized metal ion affinity chromatography (IMAC) using a cobalt affinity column (Clontech).
The enzymatic activity assay is carried out in 96 or 384-well microplates using the purified recombinant SIRT6 and a fluorophore-labeled peptide substrate: 7-amino-4-methylcoumarin (AMC) that is quenched through conjugation to the C-terminal end of a Lysin-myristoylated histone H3 peptide. The activity assay procedure requires two steps, both performed in the same microplate. In the first step, the substrate is incubated with the purified SIRT6 protein along with the co-substrate nicotinamide adenine dinucleotide (NAD+). Upon de-myristoylation, the liberated ε-amino group of the lysine becomes a trypsin substrate. Treatment with trypsin in the second step releases the fluorophore resulting in an increase in fluorescence. Fluorescence intensity is measured using a fluorescent plate reader (excitation and emission at 370 nm and 450 nm, respectively). The fluorescence signal is directly proportional to SIRT6 enzymatic activity.
In the primary screening, compounds from a library (ChemDiv Inc.) were tested at a single concentration of 20 micromolar for their potential to modulate SIRT6 enzymatic activity. The assay was carried out in 384-well black well plates and all liquid handling was done using a robotic liquid handler. Purified recombinant SIRT6 (1 micromolar) was pre-incubated with each compound (or DMSO in control wells) for 15 minutes at room temperature. The first stage of the assay was initiated by adding a ‘substrate solution’ containing the myristoylated histone H3 peptide and NAD+(for final concentrations of 25 micromolar and 20 micromolar, respectively). After one hour incubation at 37° C., a Trypsin solution (6 mg/mL) was added for 30 minutes at room temperature. Fluorescence intensity was measured using a fluorescent plate reader (Tecan) with excitation at 370 nm and emission at 450 nm. The effect of each tested compound was evaluated by the change in the fluorescence intensity compared to control wells. […] To validate the primary screening results, each of the primary “hits” was re-tested, first at concentration of 20 micromolar in duplicates and later at a serial dilution ranging from 100 to 0.2 micromolar in triplicates.

T1 sequence (Q8N6T7 whole entry): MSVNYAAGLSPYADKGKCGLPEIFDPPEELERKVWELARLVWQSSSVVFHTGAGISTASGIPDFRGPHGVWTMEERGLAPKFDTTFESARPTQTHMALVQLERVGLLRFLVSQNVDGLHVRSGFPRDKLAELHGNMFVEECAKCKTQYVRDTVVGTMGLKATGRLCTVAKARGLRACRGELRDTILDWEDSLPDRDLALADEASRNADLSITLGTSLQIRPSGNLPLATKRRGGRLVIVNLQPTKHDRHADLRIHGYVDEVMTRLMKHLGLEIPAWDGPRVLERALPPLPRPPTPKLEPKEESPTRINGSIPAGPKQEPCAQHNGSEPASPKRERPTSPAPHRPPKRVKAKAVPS

| Structure (SMILES) | % activity 20 uM (Table 1) | % activity Max. conc. 100 uM (Table 1) | % activity 20 uM (Table 2) | % activity 100 uM (Table 2) |
| --- | --- | --- | --- | --- |
| C=C(CCOc1ccccc1)N(CCCN(C)C)C1=Nc2c(C)cccc2C1 [A] | 263% | 255% |  |  |
| Cc1cccc2c1N=C(N(CCCN(C)C)C(=O)CCOc1ccccc1)C2 [B] | 287% | 252% |  |  |
| C=C1Oc2cc(C[C@@H]3C[C@H](CO)[C@H](O)[C@H](C)[C@H]3O)ccc2C2=C1CCCC2 [C] | 70% | 195% |  |  |
| CCc1nc(-c2ccccc2)c2cc(Cl)ccc2n1 [compound 1] |  |  | 88% | 428% |
| C=C(Nc1ccc(Cl)cc1)N1c2ccc(OCC)cc2C(C)=CC1(C)C [compound 2] |  |  | 29% | 46% |
| C=C(Cc1ccc2c(c1)C(C)=CC(C)(C)N2)Cc1cccc2ccccc12 [compound 4] |  |  | 29% | 56% |
| CC1=CC(C)(C)Nc2ccc(OC(=O)c3cccs3)cc21 [compound 5] |  |  | 39% | 54% |
| Cc1ccnc(NC(c2ccc(C)cc2C)c2ccc3cccnc3c2O)c1 (centres unmarked) [compound 6] |  |  | 30% | 28% |
| Cn1c(-c2ccc3[nH]c(-c4ccc(N)cc4)nc3c2)nc2cc(N)ccc21 [compound 7] |  |  | 118% | 162% |
| CCc1nnc(NC(=O)CSc2nc(N)nc(SC)c2C#N)s1 [compound 8] |  |  | 25% | 25% |
| C=C(CS)Nc1ccc(CCCCC)cc1 [compound 9] |  |  | 22% | 48% |
| C=C(CN1c2ccccc2C(C)(C)C12C=Cc1c(ccc3ccccc13)C2)NC (centres unmarked) [compound 10] |  |  | 25% | 27% |
| C=C1N(C)C(=O)c2c(nc3n2CC(c2ccc(Br)cc2)=NN3)N1C [compound 11] |  |  | 41% | 99% |
| Cc1nc2sc(-c3nc4ccccc4[nH]3)c(N)c2c(C)c1Cl [compound 12] |  |  | 36% | 59% |
| O=C1Nc2ccc(Cl)cc2C(c2ccccc2)C1Nc1ccc(Oc2ccccc2)cc1 (centres unmarked) [compound 13] |  |  | 24% | 86% |
| N#Cc1c(N)oc(C2=CC=CC2)c1-c1ccco1 [compound 14] |  |  | 28% | 48% |
| O=c1cc(O)c2sc3nc4c(cc3c2[nH]1)CCCCC4 [compound 15] |  |  | 37% | 75% |
| C=C1Nc2nc(OC(C)=O)c(C)c(C)c2S1 [compound 16] |  |  | 40% | 197% |
| COc1ccc(-c2nn3c(C)nnc3s2)cc1N [compound 17] |  |  | 21% | 18% |
| CC1=NCC(c2ccc(O)cc2O)=C1c1ccc(Cl)cc1 [compound 18] |  |  | 53% | 94% |
| C=C(OC(C)CC)C1=C(C)NC2=C(C(=C)C(C(=C)OC)C(C)C2)C1c1ccc(N(CC)CC)cc1 (centres unmarked) [compound 19] |  |  | 37% | 61% |
| COc1ccc(-c2csc3c(NN)ncnc23)cc1 [compound 20] |  |  | 78% | 22% |
| C=S(=C)(c1cc(Cl)ccc1Cl)n1c(/C=C/c2ccc(SC)cc2)nc2ccccc21 [compound 21] |  |  | 38% | 36% |

| Structure (SMILES) | % activity 20 uM (Table 1) | % activity Max. conc. 100 uM (Table 1) | % activity 20 uM (Table 2) | % activity 100 uM (Table 2) |
| --- | --- | --- | --- | --- |
| CCN1CCCC1CNC(=O)C1CCN(c2cc(C)nc3c(-c4ccc(Cl)cc4)c(C)nn23)CC1 (centres unmarked) [compound 22] |  |  | 32% | 29% |
| Cc1ccccc1CSc1ncc(Sc2ccccc2)c(C(=O)NCc2ccccc2)n1 [compound 23] |  |  | 55% | 65% |
| Cc1cc(NC(=O)CSc2nnc(-c3sc4ncccc4c3N)n2C)ccc1Cl [compound 24] |  |  | 77% | 47% |
| Cc1cc(Nc2ccc(NC(=O)Nc3ccc4c(c3)CCCO4)cc2)nc(NC2CCCCC2)n1 [compound 25] |  |  | 26% | 22% |
| CC[C@H]1O[C@@H](Cc2ccc3c(c2C)CC(=O)C(C)=C3C)[C@H](C)[C@@H](O)[C@H]1C [compound 26] |  |  | 21% | 56% |
| O=C(NCc1cccc(Cl)c1)c1noc2c1CSc1ccccc1-2 [compound 27] |  |  | 59% | 137% |
| C=C1Cc2ccc(C)cc2C2=C1C(c1ccc(F)cc1)=C(NCCOC)C2 [compound 28] |  |  | 134% | 246% |
| C=C1Oc2ccc(C)cc2-c2oc(NCCOC)c(-c3ccc(OCC)cc3)c21 [compound 29] |  |  | 82% | 226% |
| COCCNc1oc2c(c1-c1ccc(C)cc1)c(=O)oc1c(C)cccc12 [compound 30] |  |  | 149% | 111% |
| Cc1ccc(NC(=O)c2nnc(-c3ccc(NC(=O)c4cccs4)cc3)s2)cc1 [compound 31] |  |  | 29% | 16% |
| C=C(CN1C(=C)C(c2nc(-c3ccccc3)no2)=C(C)C=C1C)NCCc1ccc(CC)c(CC)c1 [compound 32] |  |  | 101% | 73% |
| C=C(CN1C(=C)C(c2nc(-c3ccccc3)no2)=C(C)C=C1C)NC1CCCCC1 [compound 33] |  |  | 53% | 221% |
| C=C(Oc1ccc2cnccc2c1)C1=C(N)c2ccccc2C1 [compound 35] |  |  | 154% | 324% |
| C=C(Nc1ccc(CC)c(Cl)c1)c1cc(N)cc2cn[nH]c12 [compound 36] |  |  | 45% | 56% |
| C=C1Cc2c(cccc2CC)C=C1C1=CCC(NC(=O)CCC(=O)NCCCN2CCC(C)CC2)=N1 [compound 37] |  |  | 42% | 35% |
| C=S(=O)(C1=CC=C(c2ccc(N3CCCCC3)nn2)C1)N1CCCC(C(=O)OCC)C1 (centres unmarked) [compound 38] |  |  | 52% | 52% |
| C=C(Nc1ccc(CCC)cc1)C1=C(C)c2c(nc(C)nc2N(C)c2ccc(C(C)C)cc2)C1 [compound 39] |  |  | 32% | 54% |
| C=C(CC)Nc1ccc(-c2cc(C(=O)NCCCN3CCCCCC3)c3ccccc3n2)cc1 [compound 40] |  |  | 62% | 92% |
| CCC(=O)Nc1ccc(-c2cc(C(=O)NCCCN3CCCCC3C)c3ccccc3n2)cc1 (centres unmarked) [compound 41] |  |  | 40% | 110% |
| C=C(CC)Nc1ccc(-c2cc(C(=O)NCCCN3CCCC(C)C3)c3ccccc3n2)cc1 (centres unmarked) [compound 42] |  |  | 61% | 87% |
| C=C(NCCN1CCN(C)CC1)c1cc(-c2ccc(NC(C)=O)cc2)nc2ccc(C)cc12 [compound 43] |  |  | 96% | 119% |
| C=C(c1ccc(-c2nc3ccccc3n(CC(C)C)c2=O)cc1)N1CCN(c2ccccc2)CC1 [compound 46] |  |  | 51% | 56% |
| C=C(NCCC)c1ccc(-c2ccc(N3CCCCC3)nc2)cc1 [compound 47] |  |  | 63% | 50% |

Source: US10857170B1, “Molecules, compositions and methods for modulation of SIRT6” (SirTLab Corporation, priority 2015, dated 2020)
